In US20260184675A1, “CHIRAL ISOMERIC SULFITE COMPOUND AND APPLICATION THEREOF” (Chengdu Hanova BioSciences Co., Ltd, priority 2024, published 2026):

Assays:
Assay type in all cases: in vivo
[1] = tested on: eggs of Tetranychus urticae; assay: Effect on hatching of eggs of Tetranychus urticae, leaf disc method; conditions: 5 ppm; for Hatching rate (%): 5 days after insecticide delivery
In short: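 Twenty adult female Tetranychus urticae mites were placed on 2.0 cm Vicia faba leaf discs over wetted filter paper in lidded dishes kept moist, and removed within 36 hours. Eggs on each disc were counted under a microscope. The egg-bearing discs were dipped for 10 seconds in a compound solution at 5 ppm or in clear water, then kept moist, and hatching was checked five days after treatment.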

eggs of Aleyrodidae = assay: Effect on hatching of eggs of Aleyrodidae, leaf disc method; conditions: 10 ppm; for Hatching rate (%), Replicate 1 / Hatching rate (%), Replicate 2 / Hatching rate (%), Replicate 3 / Number of hatched larvae 5 days after insecticide delivery, Replicate 1 / Number of hatched larvae 5 days after insecticide delivery, Replicate 2 / Number of hatched larvae 5 days after insecticide delivery, Replicate 3: Aleyrodidae eggs; for Hatching rate (%), Replicate 1 / Hatching rate (%), Replicate 2 / Hatching rate (%), Replicate 3: 5 days after delivery; for Number of hatched larvae 5 days after insecticide delivery, Replicate 1 / Number of hatched larvae 5 days after insecticide delivery, Replicate 2 / Number of hatched larvae 5 days after insecticide delivery, Replicate 3: leaf disc
In short: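 Inhibition of Aleyrodidae egg hatching was tested with a leaf disc method at 10 ppm. Egg numbers on each disc were counted under a microscope before treatment. Discs bearing eggs were soaked for 10 seconds in clear water or test solution, removed, and kept under moist conditions. Hatching was checked five days after insecticide delivery and hatched larvae were counted.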

[2] = tested on: eggs of Harmonia axyridis; assay: Effect on hatching of eggs of Harmonia axyridis, egg card immersion; conditions: 100 ppm; for Number of hatched larvae 4 days after insecticide delivery, Replicate 1 / Number of hatched larvae 4 days after insecticide delivery, Replicate 2 / Number of hatched larvae 4 days after insecticide delivery, Replicate 3: Harmonia axyridis egg cards, immersed 30 seconds; for Hatching rate (%), Replicate 1 / Hatching rate (%), Replicate 2 / Hatching rate (%), Replicate 3: Harmonia axyridis eggs, 4 days after delivery
In short: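 Egg cards (~20 eggs each) dipped 30 s in 100 ppm insecticide, air dried and kept moist at 27° C; 5 cards per treatment, 3 replicates. Hatching assessed 4 days after treatment against pre-treatment egg counts, and control effect calculated by formula.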

eggs of Thrips = assay: Effect on hatching of eggs of Thrips, leaf disc method; conditions: 100 ppm; for Hatching rate (%): 5 days after insecticide delivery
In short: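 Thrip egg hatching was tested by the leaf disc method on Vicia faba discs 2.0 cm across, placed over wetted filter paper. Egg numbers on each disc were counted under a microscope before treatment. Discs were then dipped for 10 seconds in clean water or a compound solution at 100 ppm. They were kept moist under normal conditions, and hatching was surveyed five days after insecticide delivery.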

[3] = Replicate 1, listed as 1′-(S, S)
[4] = Replicate 2, listed as 1′-(S, S)
[5] = Replicate 3, listed as 1′-(S, S)
[6] = Replicate 1, listed as 19-(R, R)
[7] = Replicate 2, listed as 19-(R, R)
[8] = Replicate 3, listed as 19-(R, R)

Compound: CC(COc1ccc(Cl)cc1Cl)OS(=O)OCCF [1′-(S,S)]
- Hatching rate (%) [1, 3]: 20.63%
- Hatching rate (%) [1, 4]: 16.22%
- Number of hatched larvae 5 days after insecticide delivery [1, 3]: 13
- Number of hatched larvae 5 days after insecticide delivery [1, 4]: 12
- Hatching rate (%), Replicate 1 (eggs of Aleyrodidae; listed as 1′-(S, S)): 15.15%
- Hatching rate (%), Replicate 2 (eggs of Aleyrodidae; listed as 1′-(S, S)): 16.19%
- Hatching rate (%), Replicate 3 (eggs of Aleyrodidae; listed as 1′-(S, S)): 15.38%
- Number of hatched larvae 5 days after insecticide delivery, Replicate 1 (eggs of Aleyrodidae; listed as 1′-(S, S)): 20
- Number of hatched larvae 5 days after insecticide delivery, Replicate 2 (eggs of Aleyrodidae; listed as 1′-(S, S)): 17
- Number of hatched larvae 5 days after insecticide delivery, Replicate 3 (eggs of Aleyrodidae; listed as 1′-(S, S)): 12
- Number of hatched larvae 4 days after insecticide delivery, Replicate 1 ([2]; listed as 1′-(S, S)): 18
- Number of hatched larvae 4 days after insecticide delivery, Replicate 2 ([2]; listed as 1′-(S, S)): 19
- Number of hatched larvae 4 days after insecticide delivery, Replicate 3 ([2]; listed as 1′-(S, S)): 21
- Hatching rate (%), Replicate 1 ([2]; listed as 1′-(S, S)): 19.57%
- Hatching rate (%), Replicate 2 ([2]; listed as 1′-(S, S)): 19.39%
- Hatching rate (%), Replicate 3 ([2]; listed as 1′-(S, S)): 18.69%
- Hatching rate (%) (eggs of Thrips; [3]): 14.10%
- Hatching rate (%) (eggs of Thrips; [4]): 14.63%
- Hatching rate (%) (eggs of Thrips; [5]): 16.04%
- Number of hatched larvae 5 days after insecticide delivery (eggs of Thrips; [3]): 11
- Number of hatched larvae 5 days after insecticide delivery (eggs of Thrips; [4]): 18
- Number of hatched larvae 5 days after insecticide delivery (eggs of Thrips; [5]): 17

Compound: CCC(COc1ccc(Cl)cc1Cl)OS(=O)OCCF [19-(R,R)]
- Hatching rate (%) [1, 6]: 17.98%
- Hatching rate (%) [1, 7]: 17.92%
- Number of hatched larvae 5 days after insecticide delivery [1, 6]: 16
- Number of hatched larvae 5 days after insecticide delivery [1, 7]: 19
- Hatching rate (%), Replicate 1 (eggs of Aleyrodidae; listed as 19-(R, R)): 11.96%
- Hatching rate (%), Replicate 2 (eggs of Aleyrodidae; listed as 19-(R, R)): 10.20%
- Hatching rate (%), Replicate 3 (eggs of Aleyrodidae; listed as 19-(R, R)): 11.20%
- Number of hatched larvae 5 days after insecticide delivery, Replicate 1 (eggs of Aleyrodidae; listed as 19-(R, R)): 11
- Number of hatched larvae 5 days after insecticide delivery, Replicate 2 (eggs of Aleyrodidae; listed as 19-(R, R)): 10
- Number of hatched larvae 5 days after insecticide delivery, Replicate 3 (eggs of Aleyrodidae; listed as 19-(R, R)): 14
- Number of hatched larvae 4 days after insecticide delivery, Replicate 1 ([2]; listed as 19-(R, R)): 14
- Number of hatched larvae 4 days after insecticide delivery, Replicate 2 ([2]; listed as 19-(R, R)): 15
- Number of hatched larvae 4 days after insecticide delivery, Replicate 3 ([2]; listed as 19-(R, R)): 14
- Hatching rate (%), Replicate 1 ([2]; listed as 19-(R, R)): 14.43%
- Hatching rate (%), Replicate 2 ([2]; listed as 19-(R, R)): 14.42%
- Hatching rate (%), Replicate 3 ([2]; listed as 19-(R, R)): 13.73%
- Hatching rate (%) (eggs of Thrips; [6]): 12.63%
- Hatching rate (%) (eggs of Thrips; [7]): 13.46%
- Hatching rate (%) (eggs of Thrips; [8]): 13.04%
- Number of hatched larvae 5 days after insecticide delivery (eggs of Thrips; [6]): 12
- Number of hatched larvae 5 days after insecticide delivery (eggs of Thrips; [7]): 14
- Number of hatched larvae 5 days after insecticide delivery (eggs of Thrips; [8]): 15

Compound: CC[C@H](COc1ccc(Cl)cc1Cl)OS(=O)OCCF (stereo partly drawn) [19-(R,S)]
- inhibitory activity on the hatching of eggs of Tetranychus urticae (in words) [1]: strong inhibitory activities
- Hatching rate (%) ([1]; Replicate 1): 0.00%
- Hatching rate (%) ([1]; Replicate 2): 0.00%
- Number of hatched larvae 5 days after insecticide delivery ([1]; Replicate 1): 0
- Number of hatched larvae 5 days after insecticide delivery ([1]; Replicate 2): 0
- inhibitory activity on the hatching of eggs of Aleyrodidae (in words) (eggs of Aleyrodidae): strong inhibitory activities
- Hatching rate (%), Replicate 1 (eggs of Aleyrodidae): 0.00%
- Hatching rate (%), Replicate 2 (eggs of Aleyrodidae): 0.00%
- Hatching rate (%), Replicate 3 (eggs of Aleyrodidae): 0.00%
- Number of hatched larvae 5 days after insecticide delivery, Replicate 1 (eggs of Aleyrodidae): 0
- Number of hatched larvae 5 days after insecticide delivery, Replicate 2 (eggs of Aleyrodidae): 0
- Number of hatched larvae 5 days after insecticide delivery, Replicate 3 (eggs of Aleyrodidae): 0
- inhibitory activity on the hatching of eggs of Harmonia axyridis (in words) [2]: strong inhibitory activities
- Number of hatched larvae 4 days after insecticide delivery, Replicate 1 [2]: 0
- Number of hatched larvae 4 days after insecticide delivery, Replicate 2 [2]: 0
- Number of hatched larvae 4 days after insecticide delivery, Replicate 3 [2]: 0
- Hatching rate (%), Replicate 1 [2]: 0.00%
- Hatching rate (%), Replicate 2 [2]: 0.00%
- Hatching rate (%), Replicate 3 [2]: 0.00%
- inhibitory activity on the hatching of eggs of Thrips (in words) (eggs of Thrips): strong inhibitory activities
- Hatching rate (%) (eggs of Thrips; Replicate 1): 0.00%
- Hatching rate (%) (eggs of Thrips; Replicate 2): 0.00%
- Hatching rate (%) (eggs of Thrips; Replicate 3): 0.00%
- Number of hatched larvae 5 days after insecticide delivery (eggs of Thrips; Replicate 1): 0
- Number of hatched larvae 5 days after insecticide delivery (eggs of Thrips; Replicate 2): 0
- Number of hatched larvae 5 days after insecticide delivery (eggs of Thrips; Replicate 3): 0

Compound: CC[C@@H](COc1ccc(Cl)cc1Cl)OS(=O)OCCF (stereo partly drawn) [19-(S,R)]
- inhibitory activity on the hatching of eggs of Tetranychus urticae (in words) [1]: strong inhibitory activities
- Hatching rate (%) ([1]; Replicate 1): 0.00%
- Hatching rate (%) ([1]; Replicate 2): 0.00%
- Number of hatched larvae 5 days after insecticide delivery ([1]; Replicate 1): 0
- Number of hatched larvae 5 days after insecticide delivery ([1]; Replicate 2): 0
- inhibitory activity on the hatching of eggs of Aleyrodidae (in words) (eggs of Aleyrodidae): strong inhibitory activities
- Hatching rate (%), Replicate 1 (eggs of Aleyrodidae): 0.00%
- Hatching rate (%), Replicate 2 (eggs of Aleyrodidae): 0.00%
- Hatching rate (%), Replicate 3 (eggs of Aleyrodidae): 0.00%
- Number of hatched larvae 5 days after insecticide delivery, Replicate 1 (eggs of Aleyrodidae): 0
- Number of hatched larvae 5 days after insecticide delivery, Replicate 2 (eggs of Aleyrodidae): 0
- Number of hatched larvae 5 days after insecticide delivery, Replicate 3 (eggs of Aleyrodidae): 0
- inhibitory activity on the hatching of eggs of Harmonia axyridis (in words) [2]: strong inhibitory activities
- Number of hatched larvae 4 days after insecticide delivery, Replicate 1 [2]: 0
- Number of hatched larvae 4 days after insecticide delivery, Replicate 2 [2]: 0
- Number of hatched larvae 4 days after insecticide delivery, Replicate 3 [2]: 0
- Hatching rate (%), Replicate 1 [2]: 0.00%
- Hatching rate (%), Replicate 2 [2]: 0.00%
- Hatching rate (%), Replicate 3 [2]: 0.00%
- inhibitory activity on the hatching of eggs of Thrips (in words) (eggs of Thrips): strong inhibitory activities
- Hatching rate (%) (eggs of Thrips; Replicate 1): 0.00%
- Hatching rate (%) (eggs of Thrips; Replicate 2): 0.00%
- Hatching rate (%) (eggs of Thrips; Replicate 3): 0.00%
- Number of hatched larvae 5 days after insecticide delivery (eggs of Thrips; Replicate 1): 0
- Number of hatched larvae 5 days after insecticide delivery (eggs of Thrips; Replicate 2): 0
- Number of hatched larvae 5 days after insecticide delivery (eggs of Thrips; Replicate 3): 0
